Assays:
[1] = organism: Bos taurus; assay: Inhibitory activity was determined against tubulin polymerization of bovine brain tubulin; format: functional
[2] = tested on: Colon 26; assay: Cytotoxic activity was determined against Colon 26 adenocarcinoma cells; format: functional, cell-based; settings: Mus musculus

IC50 [1] [µM]	SMILES	IC50 [2] [µM]
2	COc1ccc(/C=C\c2cc(OC)c(OC)c(OC)c2)cn1	0.0292
> 10	COc1ccc(/C=C\c2cc(OC)c(OC)c(OC)c2)nn1	> 3
9	COc1cnc(/C=C\c2cc(OC)c(OC)c(OC)c2)cn1	0.88
3	COc1ncc(/C=C\c2cc(OC)c(OC)c(OC)c2)cn1	0.275
3	COc1ccc(/C=C\c2cc(OC)c(OC)c(OC)c2)nc1	0.182

More lines, now with the values behind:

SMILES	IC50 [1] [µM]	IC50 [2] [µM]
COc1cnc(/C=C\c2cc(OC)c(OC)c(OC)c2)nc1	> 10	> 3
COc1cc(/C=C\c2ccc(=O)n(C)c2)cc(OC)c1OC	> 10	> 3
COc1cc(/C=C\c2cc[n+]([O-])cc2)cc(OC)c1OC	> 10	> 3
COc1cc(/C=C\c2cc[n+](C)cc2)cc(OC)c1OC		> 3
COc1cc(/C=C\c2ccn(C)c(=O)c2)cc(OC)c1OC	2	0.0192
COc1ccc(/C=C\c2cc(OC)c(OC)c(OC)c2)cc1N	1	
COc1ccc(/C=C\c2cc(OC)c(OC)c(OC)c2)cc1O [COMBRETASTATIN A4]	2	0.0087

From ChEMBL document CHEMBL1130692, “Novel B-ring modified combretastatin analogues: syntheses and antineoplastic activity” (Bioorg Med Chem Lett, 1998)
